Results as given in patent US9745283B2, “Uracil derivatives as AXL and c-MET kinase inhibitors” (priority 2011, dated 2017).

Molecular target: recombinant human baculovirus-expressed cMET (Homo sapiens (Human), UniProt P08581)
Test: C-MET Kinase Assay (HTRF KinEASE)
Format: biochemical
Details: average of two or more determinations; read-out: c-MET IC50
Procedure: The cMET kinase assay was performed in 384-well Fluotrac™ 200 HiBase microplates using the HTRF KinEASE™ assay described above for AXL except that the assay volume was reduced to half. Enzyme concentration was 8 ng/mL of recombinant human baculovirus-expressed cMET while the substrate concentrations were 0.1 μM and 0.02 μM for the biotinylated peptide and ATP, respectively. Instead of the Multidrop Combi, the BioRAPTR® FRD microfluidic workstation (Beckman Coulter, Brea, Calif.) was utilized for reagent additions.
(§1) Inhibition curves for compounds were generated by plotting percent control activity versus log 10 of the concentration of compound. IC50 values were calculated by nonlinear regression using the sigmoidal dose-response (variable slope) equation in GraphPad Prism as follows: y=bottom+(top−bottom)/(1+10(log IC50−x)*Hill Slope) where y is the % kinase activity at a given concentration of compound, x is the logarithm of the concentration of compound, bottom is the % of control kinase activity at the highest compound concentration tested, and top is the % of control kinase activity at the lowest compound concentration examined. The values for bottom and top were fixed at 0 and 100, respectively.

SMILES | IC50 [nM]
COc1cc2nccc(Oc3ccc(NC(=O)c4cn(C(C)C)c(=O)n(-c5ccccc5)c4=O)cc3F)c2cc1OC [Example 101, 1-Isopropyl-2,4-dioxo-3-phenyl-1,2,3,4-tetrahydro-pyrimidine-5-carboxylic acid [4-(6,7-dimethoxy-quinolin-4-yloxy)-3-fluoro-phenyl]-amide] | 10 to 100
CCn1cc(C(=O)Nc2cc(F)c(Oc3ccnc4cc(OC)c(OC)cc34)c(F)c2)c(=O)n(-c2ccc(F)cc2)c1=O [Example 90, 1-Ethyl-3-(4-fluoro-phenyl)-2,4-dioxo-1,2,3,4-tetrahydro-pyrimidine-5-carboxylic acid [4-(6,7-dimethoxy-quinolin-4-yloxy)-3,5-difluoro-phenyl]-amide] | 10 to 100
COc1cc(Oc2ccnc3cc(OC)c(OC)cc23)ccc1NC(=O)c1cn(C(C)C)c(=O)n(-c2ccc(F)cc2)c1=O [Example 145, 1-Isopropyl-3-(4-fluoro-phenyl)-2,4-dioxo-1,2,3,4-tetrahydro-pyrimidine-5-carboxylic acid [4-(6,7-dimethoxy-quinolin-4-yloxy)-2-methoxy-phenyl]-amide] | 10 to 100
CCOCCn1cc(C(=O)Nc2ccc(Oc3ccnc4cc(OC)c(OC)cc34)c(F)c2)c(=O)n(-c2ccc(F)cc2)c1=O [Example 4, 1-(2-Ethoxyethyl)-3-(4-fluorophenyl)-2,4-dioxo-1,2,3,4-tetrahydropyrimidine-5-carboxylic acid [4-(6,7-dimethoxyquinolin-4-yloxy)-3-fluorophenyl]-amide] | 10 to 100
CCn1cc(C(=O)Nc2ccc(Nc3ccnc4cc(OC)c(OC)cc34)cc2)c(=O)n(-c2ccc(F)cc2)c1=O [Example 134, 1-Ethyl-3-(4-fluoro-phenyl)-2,4-dioxo-1,2,3,4-tetrahydro-pyrimidine-5-carboxylic acid [4-(6,7-dimethoxy-quinolin-4-ylamino)-phenyl]-amide] | 101 to 1000
COc1cc2nccc(Oc3ccc(NC(=O)c4cn(C(C)C)c(=O)n(-c5ccc(F)cc5)c4=O)cc3C(C)C)c2cc1OC [Example 156, 3-(4-Fluoro-phenyl)-1-isopropyl-2,4-dioxo-1,2,3,4-tetrahydro-pyrimidine-5-carboxylic acid [4-(6,7-dimethoxy-quinolin-4-yloxy)-3-isopropyl-phenyl]-amide] | 10 to 100
CCn1cc(C(=O)Nc2cc(C)c(Oc3ccnc4cc(OC)c(OC)cc34)c(C)c2)c(=O)n(-c2ccc(F)cc2)c1=O [Example 161, 1-Ethyl-3-(4-fluoro-phenyl)-2,4-dioxo-1,2,3,4-tetrahydro-pyrimidine-5-carboxylic acid [4-(6,7-dimethoxy-quinolin-4-yloxy)-3,5-dimethyl-phenyl]-amide] | 10 to 100
COc1cc2nccc(Oc3ccc(NC(=O)c4nn(CC5CC5)c(=O)n(-c5ccc(F)cc5)c4=O)cc3F)c2cc1OC [Example 133, 2-Cyclopropylmethyl-4-(4-fluorophenyl)-3,5-dioxo-2,3,4,5-tetrahydro-[1,2,4]triazine-6-carboxylic acid [4-(6,7-dimethoxy-quinolin-4-yloxy)-3-fluoro-phenyl]-amide] | 10 to 100
COc1cc2nccc(Oc3ccc(NC(=O)c4cn(C(C)C)c(=O)n(-c5ccc(F)cc5)c4=O)cc3)c2cc1C#N [Example 56, 3-(4-Fluorophenyl)-1-isopropyl-2,4-dioxo-1,2,3,4-tetrahydropyrimidine-5-carboxylic acid [4-(6-cyano-7-methoxy-quinolin-4-yloxy)-phenyl]-amide] | 10 to 100
COc1cc2nccc(Oc3ccc(NC(=O)c4nn(C)c(=O)[nH]c4=O)cc3F)c2cc1OC [Example 114, 2-Methyl-3,5-dioxo-2,3,4,5-tetrahydro-[1,2,4]triazine-6-carboxylic acid [4-(6,7-dimethoxy-quinolin-4-yloxy)-3-fluoro-phenyl]-amide] | 10 to 100
COc1cc2nccc(Oc3ccc(NC(=O)c4cn(CC=C(C)C)c(=O)n(-c5ccc(F)cc5)c4=O)cc3F)c2cc1OC [Example 15, 3-(4-Fluorophenyl)-1-(3-methyl-but-2-enyl)-2,4-dioxo-1,2,3,4-tetrahydropyrimidine-5-carboxylic acid [4-(6,7-dimethoxyquinolin-4-yloxy)-3-fluorophenyl]-amide] | 10 to 100
COc1cc2nccc(Oc3ccc(NC(=O)c4nn(C)c(=O)n(CC#CCO)c4=O)cc3F)c2cc1OC [Example 118, 4-(4-Hydroxy-but-2-ynyl)-2-methyl-3,5-dioxo-2,3,4,5-tetrahydro-[1,2,4]triazine-6-carboxylic acid [4-(6,7-dimethoxy-quinolin-4-yloxy)-3-fluoro-phenyl]-amide] | 101 to 1000
CCCCCn1cc(C(=O)Nc2ccc(Oc3ccnc4cc(OC)c(OC)cc34)c(F)c2)c(=O)n(-c2ccc(F)cc2)c1=O [Example 36, 3-(4-Fluorophenyl)-2,4-dioxo-1-pentyl-1,2,3,4-tetrahydropyrimidine-5-carboxylic acid [4-(6,7-dimethoxyquinolin-4-yloxy)-3-fluorophenyl]-amide] | 10 to 100
COc1cc2nccc(Oc3ccc(NC(=O)c4cn(CCOCc5ccccc5)c(=O)n(-c5ccc(F)cc5)c4=O)cc3F)c2cc1OC [Example 10, 1-(2-Benzyloxyethyl)-3-(4-fluorophenyl)-2,4-dioxo-1,2,3,4-tetrahydropyrimidine-5-carboxylic acid [4-(6,7-dimethoxyquinolin-4-yloxy)-3-fluorophenyl]-amide] | 10 to 100
COc1cc2nccc(Oc3ccc(NC(=O)c4cn(C(C)C)c(=O)n(C(C)C)c4=O)cc3F)c2cc1OC [Example 94, 1,3-Diisopropyl-2,4-dioxo-1,2,3,4-tetrahydro-pyrimidine-5-carboxylic acid [4-(6,7-dimethoxy-quinolin-4-yloxy)-3-fluoro-phenyl]-amide] | 10 to 100
CCn1cc(C(=O)Nc2ccc(Oc3ncnc4cc(OC)c(OC)cc34)cc2)c(=O)n(-c2ccc(F)cc2)c1=O [Example 142, 1-Ethyl-3-(4-fluorophenyl)-2,4-dioxo-1,2,3,4-tetrahydro-pyrimidine-5-carboxylic acid [4-(6,7-dimethoxy-quinazolin-4-yloxy)-phenyl]-amide] | 10 to 100
COc1cc2c(Oc3ccc(NC(=O)c4cn(C(C)C)c(=O)n(-c5ccc(F)cc5)c4=O)cc3F)ccnc2cc1O [Example 46, 3-(4-Fluorophenyl)-1-isopropyl-2,4-dioxo-1,2,3,4-tetrahydropyrimidine-5-carboxylic acid [3-fluoro-4-(7-hydroxy-6-methoxyquinolin-4-yloxy)-phenyl]-amide] | < 10
COc1cc2nccc(Oc3ccc(NC(=O)c4cn(C(C)C)c(=O)n(-c5ccc(F)cc5)c4=O)cc3C)c2cc1OC [Example 163, 3-(4-Fluoro-phenyl)-1-isopropyl-2,4-dioxo-1,2,3,4-tetrahydro-pyrimidine-5-carboxylic acid [4-(6,7-dimethoxy-quinolin-4-yloxy)-3-methyl-phenyl]-amide] | 10 to 100

Molecular target: recombinant human baculovirus-expressed AXL (Homo sapiens (Human), UniProt P30530)
Test: AXL Kinase Assay (HTRF KinEASE)
Format: biochemical
Details: average of two or more determinations
Procedure: The ability of compounds to inhibit the kinase activity of recombinant human baculovirus-expressed AXL was measured by homogeneous TRF (HTRF) using Cisbio's KinEASE™ assay system in white 384-well Optiplates. Assay buffer contained 1 mM DTT, 2 mM MnCl2, 2% DMSO, […] supplement enzymatic buffer, and 1× enzymatic buffer. A 2× concentration of tyrosine kinase (TK) substrate-biotin/ATP mixture made in assay buffer was added to plates at 10 μL/well using the Multidrop Combi (Thermo Fisher Scientific, Waltham, Mass.). […] Compounds (100 nL), diluted in 100% DMSO on the Biomek FX, (Beckman Coulter, Inc., Brea, Calif.), were transferred to the assay plates using the Biomek FX pintool (2.5% final DMSO in assay). […] Plates were sealed, briefly shaken and incubated at 25° C. for 30 minutes. […] Plates were sealed, briefly shaken and incubated at 25° C. for 1 hour.
as §1

SMILES | IC50 [nM]
COc1cc2nccc(Oc3ccc(NC(=O)c4cn(C(C)C)c(=O)n(-c5ccccc5)c4=O)cc3F)c2cc1OC [Example 101, 1-Isopropyl-2,4-dioxo-3-phenyl-1,2,3,4-tetrahydro-pyrimidine-5-carboxylic acid [4-(6,7-dimethoxy-quinolin-4-yloxy)-3-fluoro-phenyl]-amide] | < 10
CCn1cc(C(=O)Nc2ccc(Oc3ccnc4cc(OC)cc(OC)c34)cc2)c(=O)n(-c2ccc(F)cc2)c1=O [Example 39, 1-Ethyl-3-(4-fluorophenyl)-2,4-dioxo-1,2,3,4-tetrahydropyrimidine-5-carboxylic acid [4-(5,7-dimethoxyquinolin-4-yloxy)-phenyl]-amide] | < 10
CCn1cc(C(=O)Nc2cc(F)c(Oc3ccnc4cc(OC)c(OC)cc34)c(F)c2)c(=O)n(-c2ccc(F)cc2)c1=O [Example 90, 1-Ethyl-3-(4-fluoro-phenyl)-2,4-dioxo-1,2,3,4-tetrahydro-pyrimidine-5-carboxylic acid [4-(6,7-dimethoxy-quinolin-4-yloxy)-3,5-difluoro-phenyl]-amide] | < 10
COc1cc(Oc2ccnc3cc(OC)c(OC)cc23)ccc1NC(=O)c1cn(C(C)C)c(=O)n(-c2ccc(F)cc2)c1=O [Example 145, 1-Isopropyl-3-(4-fluoro-phenyl)-2,4-dioxo-1,2,3,4-tetrahydro-pyrimidine-5-carboxylic acid [4-(6,7-dimethoxy-quinolin-4-yloxy)-2-methoxy-phenyl]-amide] | < 10
CCOCCn1cc(C(=O)Nc2ccc(Oc3ccnc4cc(OC)c(OC)cc34)c(F)c2)c(=O)n(-c2ccc(F)cc2)c1=O [Example 4, 1-(2-Ethoxyethyl)-3-(4-fluorophenyl)-2,4-dioxo-1,2,3,4-tetrahydropyrimidine-5-carboxylic acid [4-(6,7-dimethoxyquinolin-4-yloxy)-3-fluorophenyl]-amide] | < 10
CCn1cc(C(=O)Nc2ccc(Oc3ccnc4ccc(OC)c(OC)c34)cc2)c(=O)n(-c2ccc(F)cc2)c1=O [Example 167, 1-Ethyl-3-(4-fluoro-phenyl)-2,4-dioxo-1,2,3,4-tetrahydro-pyrimidine-5-carboxylic acid [4-(5,6-dimethoxy-quinolin-4-yloxy)-phenyl]-amide] | < 10
COc1cc2nccc(Oc3ccc(NC(=O)c4cn(Cc5csc(C)n5)c(=O)n(-c5ccc(F)cc5)c4=O)cc3F)c2cc1OC [Example 75, 3-(4-Fluoro-phenyl)-1-(2-methyl-thiazol-4-ylmethyl)-2,4-dioxo-1,2,3,4-tetrahydro-pyrimidine-5-carboxylic acid [4-(6,7-dimethoxy-quinolin-4-yloxy)-3-fluoro-phenyl]-amide] | < 10
COc1cc2nccc(Oc3ccc(NC(=O)c4cn(C5CCCC5)c(=O)n(-c5ccc(F)cc5)c4=O)cc3F)c2cc1OC [Example 76, 1-Cyclopentyl-3-(4-fluoro-phenyl)-2,4-dioxo-1,2,3,4-tetrahydro-pyrimidine-5-carboxylic acid [4-(6,7-dimethoxy-quinolin-4-yloxy)-3-fluoro-phenyl]-amide] | < 10
